In publication PMC9180621, “Preparation of Novel Pyrazolo[4,3-e]tetrazolo[1,5-b][1,2,4]triazine Sulfonamides and Their Experimental and Computational Biological Studies” (International Journal of Molecular Sciences, 2022):

What was measured:
[1] = test system: BxPC-3 cells; assay: Annexin V-FITC/propidium iodide flow cytometry, apoptosis; format: cell-based, human; conditions: IC50 concentration, Annexin V-FITC, ± SD
Description: Data are presented as mean percentage of apoptotic cells (early and late apoptotic) ± SD values. The differences between the experimental samples and vehicle control were evaluated by the ANOVA test followed by Tukey’s test (p < 0.05). Experiments were performed in triplicate. For flow cytometry analysis with Annexin V-FITC staining, the approximate number of analyzed cells was (N = 1 × 10^4), contrasting with the dual acridine orange/ethidium bromide (AO/EB) fluorescent staining (N = 200).
The Annexin V-FITC Apoptosis Detection Kit was used to estimate the apoptosis induction following 24 and 48 h incubation with the tested MM-compounds. During apoptosis, phosphatidylserine is transformed from the inner cell membrane to the cell surface, which can be detected by the annexin-FITC complex. The addition of propidium iodide to the reaction mixture allows the assessment of cell membrane integrity. Using flow cytometry analysis, four subpopulations of cells can be distinguished: alive (non-stained), necrotic (propidium iodide stained), early apoptotic (annexin V stained cells), or late-apoptotic cells (propidium iodide and annexin V stained). BxPC-3 and PC-3 cells were seeded at appropriate density on a 6-well plate (Table 9).
The experimental design included vehicle control (final solvent concentration was < 0.5% v/v DMSO), and cells treated with 2 µM SN-38 (active metabolite of irinotecan) used as a positive compensation control. Cells were left for incubation for another 24 or 48 h (37 °C; 5% CO2). After exposure, cells were trypsinized and transferred to cytometric tubes, left for 40 min, and centrifuged at 1400 rpm for 10 min at 4 °C. Afterward, the supernatant was removed, and the precipitate was diluted in 1 mL of PBS. The rest of the procedure was performed according to the manufacturer’s instructions. The results were obtained from three independent experiments.

[2] = test system: PC-3 cells; assay: MTT assay, cell viability; format: cell-based, human; conditions: Homo sapiens; PC-3, 72 h incubation, MTT, ± SD
Description: (§1) A statistical program (Graphpad Prism 7) was used to analyze obtained data (MTT test). The dose–response analysis was performed to estimate the inhibitory concentration (IC50) of the tested compounds. The IC50 value is defined as a concentration of the tested compound that leads to a reduction in cell pool viability by 50% compared to the negative control (accepted as 100%). % cell viability=Absorbance value of treated cells−Absorbance value of blank/Absorbance value of untreated cells−Absorbance value of blank×100%
(§2) To estimate cell viability following 72 h incubation with the tested MM-compounds (MM134, MM136, MM137, and MM139), the MTT test was used according to the PN-EN ISO 10993-5. It is a quantitative method based on the tetrazolium yellow dye MTT [3(4,5-dimethyl-2-thiazolyl)-2,5-diphenyl-2H-tetrazolium bromide], which is converted by living cells to a purple product, formazan, the concentration of which was measured colorimetrically. The MTT assay was performed according to the procedure described by Mosmann with modifications. At a density of approximately 8 × 10^3 cells per 100 µL/well, 96-well plates were seeded. Following the given incubation period in controlled conditions (37 °C; 5% CO2), cells were exposed to different concentrations of tested compounds in DMSO (range 0.05–3 µM) in a volume of 100 µL medium per well. Final solvent concentration of DMSO was < 0.5% v/v. The experimental design included vehicle controls and blanks (wells without cells).
(§3) After 72 h of incubation of cells with tested MM-compounds, 20 µL of MTT tetrazolium salt (5 mg/mL in PBS) was added to each well, and plates were incubated once again in a humidified atmosphere for 3 h (37 °C; 5% CO2). Following the incubation time, the solutions were removed and 100 µL of DMSO was added to dissolve the formazan complexes. Subsequently, a spectrophotometer (microplate reader Power Wave XS BioTek Instruments, Inc., Winooski, VT, USA) reading was performed at 570 nm. The experiments were performed in duplicates.

[3] = test system: PC-3 cells; assay: MitoTracker Red, mitochondria membrane potential; format: cell-based, human
Description: (§4) The fitness of the mitochondria and changes in MMP were assessed using MitoTracker Red. Data for experimental groups were presented as mean percentage of control group fluorescence intensity ± SD value (Figure 11, Table 2). Mitotracker Red is deposited in the mitochondrial matrix in response to changes in the inner transmembrane potential of the mitochondria. The intensity of fluorescence reflects the fitness of the mitochondria and alters with changes in MMP [91]. BxPC-3 and PC-3 cells were seeded at appropriate density on a 96-well plates (Table 9). […] After appropriate incubation time, cells were incubated with MitoTracker Red (0.1 µM/200 µL PBS/well) for 40 min. Afterward, MitoTracker Red solution was removed from the wells and PBS (200 µL/well) was added. Fluorescence was read at an […] of 581/644 nm using the SpectraMax® i3x Multi-Mode Detection Platform.

[4] = test system: BxPC-3 cells; assay: MitoTracker Red, mitochondria membrane potential; format: cell-based, human
Description: as §4

[5] = test system: BxPC-3 cells; assay: MTT assay, cell viability; format: cell-based; conditions: Homo sapiens, BxPC-3, 72 h incubation, ± SD
Description: as §1, §2, §3

[6] = test system: WI-38 cells; assay: MTT assay, cell viability; format: cell-based; conditions: WI-38 normal human fibroblasts, 72 h incubation, ± SD
Description: as §1, §2, §3

[7] = test system: HCT-116 cells; assay: MTT assay, cell viability; format: cell-based; conditions: Homo sapiens, HCT-116, 72 h incubation, ± SD
Description: as §1, §2, §3

[8] = test system: L929 cells; assay: MTT assay, cell viability; format: cell-based; conditions: L929 normal mouse fibroblasts, 72 h incubation, ± SD
Description: as §1, §2, §3

[9] = test system: PC-3 cells; assay: Dual acridine orange/ethidium bromide (AO/EB) fluorescent staining, apoptosis; format: cell-based, human; conditions: PC-3, 48 h incubation, 2xIC50 concentration, AO/EB, ± SD; control 1.5 ± 0.7%
Description: (§5) Data are presented as mean percentage of apoptotic cells (early and late apoptotic) ± SD values. The differences between the experimental samples and vehicle control were evaluated by the ANOVA test followed by Tukey’s test (p < 0.05). Experiments were performed in triplicate. For flow cytometry analysis with Annexin V-FITC staining, the approximate number of analyzed cells was (N = 1 × 10^4), contrasting with the dual acridine orange/ethidium bromide (AO/EB) fluorescent staining (N = 200). Acridine orange/ethidium bromide (AO/EB) staining is used to detect nuclear alterations and the development of apoptotic bodies, which are both indicative of apoptosis. Acridine orange penetrates into living cells, emitting green fluorescence after intercalation into DNA. The second dye, ethidium bromide, emits red fluorescence in cells with an altered cell membrane. The cells are divided into three categories as follows: living cells (green nucleus with red orange cytoplasm); apoptotic (green irregularly nuclei with chromatin condensation or fragmentation); and necrotic cells (uniformly orange-stained cell nuclei). Programmed cell death is measured by counting the number of cells that undergo apoptosis under a fluorescent microscope. BxPC-3 and PC-3 cells were seeded at an appropriate density on 12-well plates (Table 9). […] Following the incubation period, cells were incubated with fluorochromes (AO/EB: 100 µM; 1:1, v/v) for 5 min at 37 °C in the dark. Viable, apoptotic, or necrotic cells were distinguished using this method based on differential uptake of fluorescent DNA-binding dyes (AO/EB) with the structural aspect of chromatin condensation in the stained nucleus. Cells were analyzed using a fluorescence microscope (Olympus BX60 F5 Olympus Optical Co., Ltd., Nagano, Japan) at 360 nm. The results were obtained from three independent experiments.

[10] = test system: BxPC-3 cells; assay: as above; format: cell-based, human; conditions: BxPC-3, IC50 concentration, 24 h incubation
Description: as §5

Compound: Cc1nn(-c2ccc(S(=O)(=O)N3CCOCC3)cc2)c2nn3nnnc3nc12 [MM136]
- mean percentage of apoptotic cells (early and late apoptotic) ([1]; BxPC-3, 24 h incubation, control 10.3 ± 2.09%): 41.7 ± 0.17%
- mean percentage of apoptotic cells (early and late apoptotic) ([1]; BxPC-3, 48 h incubation, control 8.3 ± 1.13%): 56.33 ± 4.96%
- IC50 [2]: 130 ± 10 nM
- mean percentage of control group fluorescence intensity (MMP) ([3]; PC-3, 24 h incubation, 0.5IC50, ± SD): 96.3 ± 5.74%
- mean percentage of control group fluorescence intensity (MMP) ([3]; PC-3, 24 h incubation, 2xIC50, ± SD): 86.9 ± 7.22%
- mean percentage of control group fluorescence intensity (MMP) ([3]; PC-3, 24 h incubation, IC50, ± SD): 92.78 ± 0.9%
- mean percentage of control group fluorescence intensity (MMP) ([3]; PC-3, 48 h incubation, 0.5IC50, ± SD): 81.34 ± 0.4%
- mean percentage of control group fluorescence intensity (MMP) ([3]; PC-3, 48 h incubation, 2xIC50, ± SD): 47.38 ± 2.74%
- mean percentage of control group fluorescence intensity (MMP) ([3]; PC-3, 48 h incubation, IC50, ± SD): 61.24 ± 3.62%
- mean percentage of control group fluorescence intensity (MMP) ([4]; BxPC-3, 24 h incubation, 0.5IC50, ± SD): 82.83 ± 13.02%
- mean percentage of control group fluorescence intensity (MMP) ([4]; BxPC-3, 24 h incubation, 2xIC50, ± SD): 57.67 ± 5.56%
- mean percentage of control group fluorescence intensity (MMP) ([4]; BxPC-3, 24 h incubation, IC50, ± SD): 65.68 ± 4.58%
- mean percentage of control group fluorescence intensity (MMP) ([4]; BxPC-3, 48 h incubation, 0.5IC50, ± SD): 69.08 ± 4.40%
- mean percentage of control group fluorescence intensity (MMP) ([4]; BxPC-3, 48 h incubation, 2xIC50, ± SD): 61.83 ± 0.46%
- mean percentage of control group fluorescence intensity (MMP) ([4]; BxPC-3, 48 h incubation, IC50, ± SD): 62.37 ± 0.05%
- IC50 [5]: 250 ± 80 nM
- IC50 [6]: 480 ± 90 nM
- IC50 [7]: 250 ± 70 nM
- IC50 [8]: 220 ± 80 nM
- mean % of apoptotic cells [9]: 14.5 ± 0.7%
- increase in apoptotic fraction [10]: did not induce a significant increase
